# Laboratory results as given in ChEMBL document CHEMBL1201862, “PubChem BioAssay data set” (2004).
#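 The compound was tested at five concentrations on cells cultured in 96-well plates, with a 48-hour exposure period. GI50 = concentration required for 50% inhibition of growth.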 Calls of active or inactive are those of the source. Rule as the data show it: active = GI50 up to about 1.1 µM and inactive = higher.
# What was measured:
# Experiment in all cases: DTP human tumour cell line panel, 48 h
# CCRF-CEM = test system: CCRF-CEM
# DMS-273 = test system: DMS-273
# HCT-116 = test system: HCT-116
# K562 = test system: K562
# KM12 = test system: KM12
# M14 = test system: M14
# OVCAR-3 = test system: OVCAR-3
# OVCAR-4 = test system: OVCAR-4
# RXF 393 = test system: RXF 393
# SF-268 = test system: SF-268
# SF-295 = test system: SF-295
# SK-MEL-2 = test system: SK-MEL-2
# SNB-19 = test system: SNB-19
# SW-620 = test system: SW-620
# BT-549 = test system: BT-549
# MDA-MB-231 = test system: MDA-MB-231
# MDA-N = test system: MDA-N
# NCI/ADR-RES = test system: NCI/ADR-RES
# PC-3 = test system: PC-3
# T47D = test system: T47D
Compound,GI50 (CCRF-CEM),GI50 (DMS-273),GI50 (HCT-116),GI50 (K562),GI50 (KM12),GI50 (M14),GI50 (OVCAR-3),GI50 (OVCAR-4),GI50 (RXF 393),GI50 (SF-268),GI50 (SF-295),GI50 (SK-MEL-2),GI50 (SNB-19),GI50 (SW-620),GI50 (BT-549),GI50 (MDA-MB-231),GI50 (MDA-N),GI50 (NCI/ADR-RES),GI50 (PC-3),GI50 (T47D)
CCc1cccc(=O)c([O-])c1.CCc1cccc(=O)c([O-])c1.[Bi+3].[Cl-],1.91 µM (inactive),7.53 µM (inactive),7.45 µM (inactive),2.81 µM (inactive),12.4 µM (inactive),8.38 µM (inactive),5.92 µM (inactive),13.6 µM (inactive),18.2 µM (inactive),5.21 µM (inactive),6.31 µM (inactive),12.7 µM (inactive),11 µM (inactive),3.23 µM (inactive),,,,,,
Nn1c(=O)n(Cc2ccccc2)n(-c2ccccc2)c1=O,> 100 µM (inactive),> 100 µM (inactive),> 100 µM (inactive),> 100 µM (inactive),> 100 µM (inactive),> 100 µM (inactive),> 100 µM (inactive),> 100 µM (inactive),> 100 µM (inactive),> 100 µM (inactive),> 100 µM (inactive),> 100 µM (inactive),> 100 µM (inactive),> 100 µM (inactive),,,,,,
CC1=CP(=O)(OC(C)C)CC(C)=C1Cl (centres undefined),34.4 µM (inactive),98.4 µM (inactive),> 100 µM (inactive),> 100 µM (inactive),> 100 µM (inactive),51.1 µM (inactive),> 100 µM (inactive),,> 100 µM (inactive),82.6 µM (inactive),> 100 µM (inactive),> 100 µM (inactive),> 100 µM (inactive),70.5 µM (inactive),,,,,,
COc1ccc(CN2C(=O)C(Cc3cc(OC)c(OC)c(C)c3OC)NC(=O)/C2=C/c2cc(OC)c(OC)c(C)c2OC)cc1 (centres undefined),27 µM (inactive),> 10 µM (inactive),26.4 µM (inactive),33 µM (inactive),38.8 µM (inactive),32.1 µM (inactive),26.1 µM (inactive),30.6 µM (inactive),25.8 µM (inactive),51.6 µM (inactive),43.5 µM (inactive),19.3 µM (inactive),,33.9 µM (inactive),,,,,,
O=c1c2c([nH]c3cc4c(cc13)OCO4)-c1ccccc1C2,17.7 µM (inactive),19.2 µM (inactive),15.6 µM (inactive),27.2 µM (inactive),18.6 µM (inactive),20.6 µM (inactive),22.5 µM (inactive),33.3 µM (inactive),16.4 µM (inactive),36.2 µM (inactive),26.9 µM (inactive),13.5 µM (inactive),37.1 µM (inactive),35.2 µM (inactive),,,,,,
Cc1ccccc1NC(=O)/C(=N/NC(=O)CC#N)C1C(=O)N(c2ccccc2)N=C1N (centres undefined),31.3 µM (inactive),> 100 µM (inactive),> 100 µM (inactive),75.5 µM (inactive),> 100 µM (inactive),> 100 µM (inactive),> 100 µM (inactive),> 100 µM (inactive),> 100 µM (inactive),> 100 µM (inactive),> 100 µM (inactive),> 100 µM (inactive),> 100 µM (inactive),> 100 µM (inactive),,,,,,
C=CCN(CC=C)CC(C(C)=O)C(c1ccccc1)c1c(O)c2ccccc2oc1=O (centres undefined),> 100 µM (inactive),> 100 µM (inactive),> 100 µM (inactive),> 100 µM (inactive),19 µM (inactive),> 100 µM (inactive),,> 100 µM (inactive),> 100 µM (inactive),> 100 µM (inactive),30.5 µM (inactive),> 100 µM (inactive),15.6 µM (inactive),> 100 µM (inactive),,,,,,
Cc1ccc(C(=O)/C=C2\Nc3c(c(=O)oc4ccccc34)N=C2NC23CC4CC(CC(C4)C2)C3)cc1,> 100 µM (inactive),> 100 µM (inactive),> 100 µM (inactive),> 100 µM (inactive),> 100 µM (inactive),> 100 µM (inactive),> 100 µM (inactive),,> 100 µM (inactive),> 100 µM (inactive),,> 100 µM (inactive),> 100 µM (inactive),> 100 µM (inactive),,,,,,
c1ccc2c[n+](CCCC[n+]3ccc4ccccc4c3)ccc2c1,> 100 µM (inactive),,> 100 µM (inactive),> 100 µM (inactive),> 100 µM (inactive),1.12 µM (active),> 100 µM (inactive),> 100 µM (inactive),> 100 µM (inactive),> 100 µM (inactive),> 100 µM (inactive),> 100 µM (inactive),21.8 µM (inactive),> 100 µM (inactive),> 100 µM (inactive),> 100 µM (inactive),> 100 µM (inactive),> 100 µM (inactive),> 100 µM (inactive),> 100 µM (inactive)
Cc1c(C(=O)O)oc2ccc([N+](=O)[O-])cc12,> 100 µM (inactive),> 100 µM (inactive),> 100 µM (inactive),> 100 µM (inactive),> 100 µM (inactive),> 100 µM (inactive),> 100 µM (inactive),> 100 µM (inactive),,> 100 µM (inactive),> 100 µM (inactive),> 100 µM (inactive),> 100 µM (inactive),> 100 µM (inactive),,,,,,
